Reference: patent publication US11674136B2, “DNA-templated macrocycle library” (President and Fellows of Harvard College, priority 2018, dated 2023)
“Also recorded” adds a separate entry of the source.

Molecular target: T1, Recombinant human N-His6-IDE42-1019 (Homo sapiens, UniProt P14735)
T1 construct: Recombinant human N-His6-IDE42-1019(R&D Systems); His6 (N); purchased R&D Systems
T1 sequence (P14735 42-1019): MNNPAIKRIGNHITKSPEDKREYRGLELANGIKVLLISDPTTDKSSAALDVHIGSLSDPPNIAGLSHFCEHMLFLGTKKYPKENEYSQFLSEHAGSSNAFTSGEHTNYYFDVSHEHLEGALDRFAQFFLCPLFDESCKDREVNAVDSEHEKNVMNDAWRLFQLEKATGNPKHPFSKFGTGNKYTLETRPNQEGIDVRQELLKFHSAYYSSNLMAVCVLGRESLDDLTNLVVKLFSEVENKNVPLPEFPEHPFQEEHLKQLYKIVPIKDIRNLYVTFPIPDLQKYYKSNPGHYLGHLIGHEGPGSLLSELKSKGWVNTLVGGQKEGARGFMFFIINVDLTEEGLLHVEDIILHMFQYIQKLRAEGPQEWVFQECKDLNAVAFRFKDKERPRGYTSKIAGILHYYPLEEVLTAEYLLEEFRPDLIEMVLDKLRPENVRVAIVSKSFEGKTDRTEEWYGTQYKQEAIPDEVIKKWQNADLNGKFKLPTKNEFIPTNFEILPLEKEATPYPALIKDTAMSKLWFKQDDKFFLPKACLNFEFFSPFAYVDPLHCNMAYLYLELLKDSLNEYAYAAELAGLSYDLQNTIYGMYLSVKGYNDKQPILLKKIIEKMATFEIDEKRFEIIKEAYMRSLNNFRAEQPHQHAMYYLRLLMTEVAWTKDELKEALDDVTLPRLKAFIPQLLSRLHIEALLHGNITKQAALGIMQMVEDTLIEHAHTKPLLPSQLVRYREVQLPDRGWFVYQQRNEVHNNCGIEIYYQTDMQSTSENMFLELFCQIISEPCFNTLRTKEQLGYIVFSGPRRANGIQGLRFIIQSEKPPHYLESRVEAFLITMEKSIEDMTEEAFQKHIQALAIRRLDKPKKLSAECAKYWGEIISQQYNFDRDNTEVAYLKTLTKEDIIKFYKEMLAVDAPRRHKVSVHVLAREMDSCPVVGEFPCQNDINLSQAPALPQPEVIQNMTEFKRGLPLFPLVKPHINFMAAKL
Assay: IDE inhibition assay with fluorogenic decapeptide substrate Mca-RPPGFSAFK(Dnp)-OH
Format: biochemical
Details: fluorogenic decapeptide cleavage assay; for IC50: DNA-free macrocycle; for IDE inhibition, potency in words: comparison with reference inhibitors
Description: Recombinant human N-His6-IDE42-1019(R&D Systems) was assayed using the fluorophore/quencher-tagged peptide substrate Mca-RPPGFSAFK(Dnp)-OH (R&D) according to the manufacturer's instructions and using the recommended buffer 50 mM Tris, pH 7.5, 1 M NaCl (fluorophore Mca=(7-methoxycourmarin-4-yl)acetyl and quencher Dnp=2,4-dinitrophenyl). The enzyme mixture (48 μL) was transferred to a 96-well plate and combined with 2 μL of inhibitor in DMSO solutions, as 3-fold dilution series. The mixtures were allowed to equilibrate for 5 minutes and the enzymatic reaction was started by addition of substrate peptide in assay buffer (50 μL), immediately mixed by orbital shaking, and monitored on a fluorescence plate reader (excitation at 320 nm, emission at 405 nm). […] Inhibitor 6bK was used as a positive control in each assay, and error bars correspond to the standard error.

`NCCOCCNC(=O)C1Cc2ccccc2CNC(=O)CC(Cc2ccccc2)NC(=O)C(Cc2ccco2)NC(=O)CN2CCN(CC2)C(=O)C=CC(=O)N1` (stereo not drawn) [cis-CODVV] gave an IC50 of 30000 nM.

In the case of `NCCOCCNC(=O)C1CCNC(=O)C=CC(=O)NC(Cc2ccccc2C(F)(F)F)C(=O)NC(CC2CCCCC2)C(=O)NC(Cc2ccc(C(=O)c3ccccc3)cc2)C(=O)N1` (stereo not drawn) [cis-DJIR], the IC50 is reported as 40 nM and the “IDE inhibition, potency in words” value is reported as “equipotent to the structurally similar trans-6bK and trans-6bA macrocycles; also recorded: at least as potent that 6bK”.

With `CC1NC(=O)C=CC(=O)NC(C(=O)NCCOCCN)Cc2cccc(c2)CNC(=O)C(Cc2ccc(C(=O)c3ccccc3)cc2)NC(=O)C(CC2CCCCC2)NC1=O` (stereo not drawn) [trans-DJPM] the IC50 was 50 nM and the “IDE inhibition, potency in words” value was “equipotent to the structurally similar trans-6bK and trans-6bA macrocycles; also recorded: comparable in potency to our previously optimized 20-membered inhibitor 6bK; also recorded: equipotent to the previously optimized IDE inhibitor 6bK”.
